# How the values were obtained:
# [1] = tested on: T. vivax STIB 719 / ILRAD 560; assay: Ex vivo drug sensitivity assay for T. vivax (48 h); format: cell-based; conditions: Trypanosoma vivax, STIB719, 48 h
# Experimental: Ex vivo drug sensitivity assay for T. vivax (48 h): Compounds were tested ex vivo against the STIB 719 / ILRAD 560 T. vivax (drug sensitive) strain which originated from the Y486 strain, isolated from a naturally infected bovine in 1976 in Zaria, Nigeria. Compounds were assayed in at least three separate, independent experiments and an 11-point dilution curve was used to determine the EC50 values. Bloodstream form trypanosomes were harvested from a highly parasitaemic mouse (via cardiac puncture) and were incubated with test compounds for 45 h at 37°C in a humidified atmosphere containing 5% CO2, supported in HMI-9 medium containing 20% bovine serum. Thereafter, Resazurin dye was added to monitor trypanosome viability as described in the preceding section.
# T. congolense IL3000 = assay: In vitro drug sensitivity assay for T. congolense (72 h); format: cell-based; conditions: Trypanosoma congolense, IL3000 strain
# Experimental: In vitro drug sensitivity assay for T. congolense (72 h): Compounds were tested in vitro for efficacy against the IL3000 T. congolense (drug sensitive) strain which was originally derived from the Trans Mara I strain, isolated from a bovine in 1966 in Kenya. […] Compounds were assayed in at least three separate, independent experiments and an 11-point dilution curve was used to determine the EC50 values. Bloodstream form trypanosomes were supported in HMI-9 medium containing 20% bovine serum and were incubated with test compounds for 69 h at 34°C in a humidified atmosphere containing 5% CO2. Thereafter, 10 μL of Resazurin dye (12.5 mg in 100 mL of phosphate-buffered saline, Sigma-Aldrich, Buchs, Switzerland) was added for an additional 3 h. Plates were read using a fluorescence plate reader (Spectramax, Gemini XS, Bucher Biotec, Basel, Switzerland) using an excitation wavelength of 536 nm and an emission wavelength of 588 nm.
# HepG2 cells = assay: Drug toxicity to HepG2 cells (MTT, 48 h); format: cell-based, human; conditions: tested concentration ranges based on compound solubility
# Experimental: HepG2 cells were cultured in complete Minimal Essential Medium prepared by supplementing MEM with 0.19% sodium bicarbonate, 10% heat inactivated FBS, 2 mM L-glutamine, 0.1 mM MEM non-essential amino, 0.009 mg/mL insulin, 1.76 mg/mL bovine serum albumin, 20 units/mL penicillin–streptomycin, and 0.05 mg/mL gentamycin. HepG2 cells cultured in complete MEM were first washed with 1× Hank’s Balanced Salt Solution (Invitrogen #14175095), trypsinized using a 0.25% trypsin/EDTA solution, assessed for viability using trypan blue, and resuspended at 250,000 cells/mL. Using a Tecan EVO Freedom robot, 38.3 μL of cell suspension were added to each well of clear, cell culture-treated 384-well microtiter plates for a final concentration of 9570 liver cells per well, and plated cells were incubated overnight in 5% CO2 at 37°C. Drug plates were prepared with the Tecan EVO Freedom using sterile 96 well plates containing twelve duplicate 1.6-fold serial dilutions of each test compound suspended in DMSO. 4.25 μL of diluted test compound was then added to the 38.3 μL of media in each well providing a […] final dilution of compound. Compounds were tested from a range of 57 ng/mL to 10,000 ng/mL for all assays. Mefloquine was used as a plate control for all assays with a concentration ranging from 113 ng/mL to 20,000 ng/mL. After a 48 h incubation period, 8 μL of a 1.5 mg/mL solution of MTT diluted in complete MEM media was added to each well. All plates were subsequently incubated in the dark for 1 h at room temperature. After incubation, the media and drugs in each well was removed by shaking the plate over sink, and the plates were left to dry in a fume hood for 15 mins. Next, 30 μL of isopropanol acidified by addition of HCl at a final concentration of 0.36% was added to dissolve the formazan dye crystals created by reduction of MTT. Plates are put on a 3-D rotator for 15–30 mins. Absorbance was determined in all wells using a Tecan iControl 1.6 Infinite plate reader.
# Aqueous solubility = format: physicochemical
# [2] = Human liver microsome intrinsic clearance; format: in vitro ADME
# NIH/3T3 cells = assay: Drug toxicity to 3T3 cells (Alamar Blue, 96 h); format: cell-based
# Experimental: In a 96-well plate, 5×10^4 NIH/3T3 (ATCC CRL-1658) cells (purchased from ATCC) in DMEM without phenol red supplemented with 2% FBS were added to each well. Cells were incubated for 2 h to allow for attachment. Compounds were added in triplicates at 200 μM and in serial dilutions 1:2 and incubated at 37°C, 5% CO2 for 96 h. […] Following incubation, 10 μL of Alamar Blue (ThermoFisher) were added to each well and cells incubated at 37°C, 5% CO2 for 4 h. Absorbance was read at 590–595 nm.
# [3] = tested on: T. cruzi amastigote (Tulahuen strain expressing β-galactosidase); assay: Intracellular T. cruzi assay in 3T3 cells (beta-galactosidase, 96 h); format: cell-based, Trypanosoma cruzi; conditions: intracellular in 3T3 cells, 96 h; read-out: T. cruzi amastigote EC50
# Experimental: In a 96-well plate, 5×10^4 3T3 cells in DMEM without phenol red supplemented with 2% FBS were added to each well. Cells were incubated for 2 h to allow for attachment. Compounds were added in triplicates at 50 μM and in serial dilutions 1:2. To each well, 5×10^4 T. cruzi trypomastigotes (Tulahuen strain expressing β-galactosidase) were added and incubated at 37°C, 5% CO2 for 96 h. Following incubation, 50 μL of 500 μM chlorophenol Red-β-D-galactopyranoside (CPRG) in phosphate-buffered saline with 0.5% NP40 was added to each well and incubated at 37°C, 5% CO2 for 4 h. Absorbance was read at 590–595 nm.
# [4] = tested on: T. b. brucei (strain 427); assay: T. b. brucei proliferation assay (PrestoBlue, 48 h); format: cell-based, Trypanosoma brucei brucei
# Experimental: The assay was performed following a previously reported procedure. Briefly, in a 96-well plate, compounds were added in triplicates at 50 μM and in serial dilutions 1:2 in HMI-9 medium. To each well, 100 μL of 2.5×10^3 T. b. brucei (strain 427, received as a gift from Dr. C. C. Wang at UCSF) in HMI-9 medium was were added and incubated at 37°C, 5% CO2 for 48 h. Following incubation, 20 μL of PrestoBlue were added to each well and incubated for additional 4 h. Fluorescence was read at 530 nm excitation and 590 nm emission.
# LogD7.4 = format: physicochemical; conditions: pH 7.4
# [5] = Human plasma protein binding; format: in vitro ADME
# L. major amastigote = assay: L. major intracellular amastigote luciferase assay in RAW 264.7 macrophages; format: cell-based, Leishmania major; conditions: intracellular amastigotes in RAW 264.7 macrophages, 96 h
# Experimental: Amastigote assays were performed using pLEXSY-hyg2-luciferase L. major transfected promastigotes and the murine RAW 264.7 macrophage cell line (ATCC TIB-71, Manassas, VA). Briefly, luciferase-expressing promastigotes of each Leishmania species were generated by adding a luciferase encoding region to the pLEXSY-hyg2 vector (Jena Biosciences, Germany) as described. One μg of the linearized pLEXSY-hyg2-luciferase vector were electroporated (480 V, 13 Ω, and 500 μF) into 4×10^7 Leishmania promastigotes. Selection for stable promastigote transfectants was carried out using hygromycin B (100 μg/mL). RAW 264.7 macrophages were maintained in growth medium (Dulbecco’s Modified Eagle’s Medium supplemented with heat-inactivated 10% FBS (Life Technologies)). Cells were harvested and resuspended in growth medium at 2.0×10^5 cells/mL, and 1×10^4 cells/well were dispensed (final volume 50 μL) in each well of a 384 well tissue-culture treated white plate using a EVO Freedom liquid handling system (Tecan, Durham, NC). Plates were incubated at 37°C in 5% CO2 for 24 h after which the culture medium was removed from each well using the EVO Freedom liquid handler. Metacyclic phase pLEXSY-hyg2-luciferase-Leishmania promastigotes (MOI = 1:10 L. major) were added to each assay plate well and allowed to infect the RAW 264.7 macrophages. After an overnight incubation, the growth medium was aspirated and each well was washed three times with 40 μL of fresh growth medium to remove non-internalized promastigotes. After the third wash, 69.2 μL of growth medium was added to each well. Compound dilutions (final concentration ranges 0.5–10,000 ng/mL) were generated and dispensed using the liquid handling system. Compound treated plates were incubated at 37°C in 5% CO2 for 96 h. After incubation, 7.5 μL of a luciferin solution (Caliper Life Science, Waltham, MA) diluted to 150 μg/mL was added to each well, and the plates were incubated for 30 min at 37°C in the dark. Data were captured using an Infinite M200 plate reader (Tecan). EC50s were generated for each concentration response test using GraphPad Prism software 6.0.
# [6] = Rat hepatocyte intrinsic clearance; format: in vitro ADME
EC50 [1],EC50 (T. congolense IL3000),SMILES,HepG2 TC50 (HepG2 cells),solubility (Aqueous solubility),Human Liver Microsome CLint [2],3T3 TC50 (NIH/3T3 cells),EC50 [3],EC50 [4],LogD7.4 (LogD7.4),Human PPB [5],EC50 (L. major amastigote),Rat Hepatocyte CLint [6]
0.00012 µM,0.006 µM,"CC[n+]1c(-c2ccccc2)c2cc(N/N=N/c3cccc(C(=N)N)c3)ccc2c2ccc(N)cc21 [Isometamidium, isometamidium chloride, reference compound]",–,–,–,–,–,–,–,–,–,–
–,–,Cc1ccc(-c2ccc3c(Nc4cnccn4)ccnc3c2)o1 [NEU-2133],50 µM,4 µM,190 µL/min/mg,> 50 µM,0.79 µM,5.3 µM,4,99%,33 µM,290 μL/min/10^6 cells
–,–,Cc1nn(C)c(C)c1Nc1ccc2c(Nc3cnccn3)ccnc2c1 [NEU-2142],39 µM,570 µM,13 µL/min/mg,> 100 µM,> 50 µM,23 µM,2,59%,26 µM,32 μL/min/10^6 cells
–,–,COc1ccc(Nc2ccnc3cc(-c4ccc(C)o4)ccc23)cc1Cl [NEU-2134],42 µM,0.1 µM,> 300 µL/min/mg,> 100 µM,1.2 µM,> 20 µM,4.8,> 99%,27 µM,193 μL/min/10^6 cells
–,–,CN1CCN(c2ncc(-c3ccc4c(Nc5ccc6[nH]nnc6c5)ccnc4c3)cn2)CC1 [NEU-1957],14 µM,< 1 µM,120 µL/min/mg,> 100 µM,> 50 µM,21 µM,3.3,91%,21 µM,51 μL/min/10^6 cells
–,–,Cn1ccnc1Nc1ccc2c(Nc3cnccn3)ccnc2c1 [NEU-2147],42 µM,160 µM,12 µL/min/mg,> 100 µM,> 50 µM,49 µM,1.7,57%,5.5 µM,37 μL/min/10^6 cells

# From publication PMC6283615, “Anilinoquinoline based inhibitors of trypanosomatid proliferation” (PLoS Neglected Tropical Diseases, 2018)
